Measured values reported in US20190119282A1, “IMIDAZOPYRIDAZINES USEFUL AS INHIBITORS OF THE PAR-2 SIGNALING PATHWAY” (Vertex Pharmaceuticals Incorporated, priority 2013, published 2019).

Key:
[1] = molecular target: T1, PAR2 (HT-29 cells, SLIGKV activation) (Homo sapiens, UniProt P55085); experiment: Ca FLIPR TETRA assay, ANTAGONIST mode, stimulation with 8 μM SLIGKV; format: cell-based; details: HT-29 cells, stimulation with 8 μM SLIGKV
T1 construct: host or cells: HT-29 cells
T1 sequence (P55085 26-397): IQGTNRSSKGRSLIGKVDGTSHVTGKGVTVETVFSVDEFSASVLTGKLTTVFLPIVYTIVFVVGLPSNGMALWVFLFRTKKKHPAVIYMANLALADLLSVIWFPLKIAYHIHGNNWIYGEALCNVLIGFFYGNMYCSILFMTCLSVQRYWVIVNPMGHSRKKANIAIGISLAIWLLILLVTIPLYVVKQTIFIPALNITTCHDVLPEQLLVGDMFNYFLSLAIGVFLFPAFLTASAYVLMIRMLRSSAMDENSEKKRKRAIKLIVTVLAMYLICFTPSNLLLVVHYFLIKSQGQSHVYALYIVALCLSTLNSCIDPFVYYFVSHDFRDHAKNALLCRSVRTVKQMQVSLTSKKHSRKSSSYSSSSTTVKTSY
Description: (§1) Example 60: Protocol for Testing PAR2 Compounds in ANTAGONIST Mode Using the Ca FLIPR^TETRA Assay (384 Well)
(§2) 23000 HT-29 cells (ATCC# HTB-38) were plated in 384-well black, transparent-flat bottom plates and incubated in 25 uL of 1% FBS/McCoy's media ON at 37° C. under an atmosphere of 5% CO2. The following day, 25 uL FLIPR calcium 5 Molecular Devices assay reagent (Cat: R-8186) was added. Plates were incubated at 37° C. and r. t. for 45 min and 15 min, respectively. Compounds dilutions were prepared in 100% DMSO using a Biomek FX and diluted 20-fold in HBSS and then 5.5 uL was added directly to the cells by the FLIPR^TETRA (10× dilution) using FLIPR Tetra Pipette tips, black, non-sterile, 384 Molecular Devices (Cat: 9000-0764).
(§3) A first read was performed to determine whether the test compounds on their own can activate Ca2+ responses.
(§4) The cells were incubated with the compounds for 30 min at r. t. and then read in ANTAGONIST mode in the same plate by stimulating with 6.2 uL of a fixed concentration of the activator: final concentrations: 8 μM SLIGKV, 1 U/mL Thrombin, 3.1 U/mL trypsin, or 0.6 μM UTP.

[2] = molecular target: T2, PAR2 (HT-29 cells, trypsin activation) (Homo sapiens, UniProt P55085); experiment: Ca FLIPR TETRA assay, ANTAGONIST mode, stimulation with 3.1 U/mL trypsin; format: cell-based; details: HT-29 cells, stimulation with 3.1 U/mL trypsin
T2 construct: host or cells: HT-29 cells
T2 sequence (P55085 26-397): T1 sequence (P55085 26-397)
Description: as §1, §2, §3, §4

[3] = tested on: Thrombin-stimulated Ca2+ response in HT-29 cells; experiment: Ca FLIPR TETRA assay, ANTAGONIST mode, stimulation with 1 U/mL Thrombin; format: cell-based, human; details: for IC50: Homo sapiens, HT-29 cells, stimulation with 1 U/mL Thrombin
Description: as §1, §2, §3, §4

[4] = tested on: UTP-stimulated Ca2+ response in HT-29 cells; experiment: Ca FLIPR TETRA assay, ANTAGONIST mode, stimulation with 0.6 μM UTP; format: cell-based, human; details: Homo sapiens, HT-29 cells, stimulation with 0.6 μM UTP
Description: as §1, §2, §3, §4

| Structure (SMILES) | IC50 [1] [µM] | IC50 [2] [µM] | IC50 [3] [µM] | IC50 [4] [µM] | Thrombin % @ concentration ([3]; @ 50 (μM)) [% @ 50] | IC50 ([1]; antagonist mode) [µM] | IC50 ([3]; antagonist mode) [µM] | IC50 ([4]; antagonist mode) [µM] |
| --- | --- | --- | --- | --- | --- | --- | --- | --- |
| C[C@H]1CN(C(=O)c2cn3nc(-c4ccc(F)cc4)cc(C(F)(F)F)c3n2)CCN1C(=O)OC(C)(C)C [Compound I-1, tert-Butyl (2S)-4-[6-(4-fluorophenyl)-8-(trifluoromethyl)imidazo[1,2-b]pyridazine-2-carbonyl]-2-methyl-piperazine-1-carboxylate] | 0.28 | 1 | 3.6 | 3.1 | – | – | – | – |
| Cc1cc(-c2ccc(F)cc2)nn2cc(C(=O)N3CCN(C(=O)OC(C)(C)C)[C@@H](C)C3)nc12 [Compound I-2, tert-Butyl (2S)-4-[6-(4-fluorophenyl)-8-methyl-imidazo[1,2-b]pyridazine-2-carbonyl]-2-methyl-piperazine-1-carboxylate] | 0.86 | 2.4 | 6.1 | 4.7 | – | – | – | – |
| CCc1cc(-c2ccc(F)cc2)nn2cc(C(=O)N3CCN(C(=O)OC(C)(C)C)[C@@H](C)C3)nc12 [Compound I-3, tert-Butyl (2S)-4-[8-ethyl-6-(4-fluorophenyl)imidazo[1,2-b]pyridazine-2-carbonyl]-2-methyl-piperazine-1-carboxylate] | 0.16 | 0.825 | 18 | 16 | – | – | – | – |
| CCc1cc(-c2ccc(F)cc2)nn2cc(C(=O)N3CCN(C(=O)OC(C)(C)C)CC3(C)C)nc12 [Compound I-4, tert-Butyl 4-[8-ethyl-6-(4-fluorophenyl)imidazo[1,2-b]pyridazine-2-carbonyl]-3,3-dimethyl-piperazine-1-carboxylate] | 0.003 | 0.016 | 12 | 17 | – | – | – | – |
| Cc1cc(-c2ccc(F)cc2)nn2cc(C(=O)N3CCCCCC3)nc12 [Compound I-6, Azepan-1-yl-[6-(4-fluorophenyl)-8-methyl-imidazo[1,2-b]pyridazin-2-yl]methanone] | 1.28 | 2.5 | 10 | 11 | – | – | – | – |
| Cc1cc(-c2ccc(F)cc2)nn2cc(C(=O)N3CCN(C(=O)OCc4ccccc4)[C@@H](C)C3)nc12 [Compound I-8, (S)-Benzyl 4-(6-(4-fluorophenyl)-8-methylimidazo[1,2-b]pyridazine-2-carbonyl)-2-methylpiperazine-1-carboxylate] | 0.18 | 0.69 | 43 | 31 | – | – | – | – |
| COC(=O)[C@@H]1CCN(C(=O)c2cn3nc(-c4ccc(F)cc4)cc(C)c3n2)C[C@@H]1C [Compound I-10, (3R,4R)-Methyl 1-(6-(4-fluorophenyl)-8-methylimidazo[1,2-b]pyridazine-2-carbonyl)-3-methylpiperidine-4-carboxylate] | 0.43 | 1.1 | 16 | 18 | – | – | – | – |
| C[C@H]1CN(C(=O)c2cn3nc(-c4ccc(F)cc4)cc(C(F)(F)F)c3n2)CCN1C(=O)OCc1ccccn1 [Compound I-11, 2-Pyridylmethyl (2S)-4-[6-(4-fluorophenyl)-8-(trifluoromethyl)-imidazo-[1,2-b]pyridazine-2-carbonyl]-2-methyl-piperazine-1-carboxylate] | 0.065 | 0.3 | 9.6 | > 5 | – | – | – | – |
| C[C@H]1CN(C(=O)c2cn3nc(-c4ccc(F)cc4)cc(C(F)(F)F)c3n2)CCN1C(=O)OCc1cccnc1 [Compound I-12, 3-Pyridylmethyl (2S)-4-[6-(4-fluorophenyl)-8-(trifluoromethyl)-imidazo-[1,2-b]pyridazine-2-carbonyl]-2-methyl-piperazine-1-carboxylate] | 0.084 | 0.49 | 7.7 | 9.2 | – | – | – | – |
| C[C@H]1CN(C(=O)c2cn3nc(-c4ccc(F)cc4)ccc3n2)CCN1C(=O)[C@H](O)CC(C)(C)C [Compound I-13, (2R)-1-[(2S)-4-[6-(4-Fluorophenyl)imidazo[1,2-b]pyridazine-2-carbonyl]-2-methyl-piperazin-1-yl]-2-hydroxy-4,4-dimethyl-pentan-1-one] | 0.48 | 2.4 | 13 | 13 | – | – | – | – |
| C[C@H]1CN(C(=O)c2cn3nc(-c4ccc(F)cc4)cc(C4CC4)c3n2)CCN1C(=O)[C@H](O)CC(C)(C)C [Compound I-14, (2R)-1-[(2S)-4-[8-Cylopropyl-6-(4-fluorophenyl)imidazo[1,2-b]pyridazine-2-carbonyl]-2-methyl-piperazin-1-yl]-2-hydroxy-4,4-dimethyl-pentan-1-one] | 0.0005 | 0.0008 | > 5 | > 5 | – | – | – | – |
| C[C@H]1CN(C(=O)c2cn3nc(-c4ccc(F)cc4)cc(C(F)(F)F)c3n2)CCN1C(=O)[C@@H](CC1CCCCC1)NC(=O)OC(C)(C)C [Compound I-15, tert-Butyl N-[(1R)-1-(cyclohexylmethyl)-2-[(2S)-4-[6-(4-fluorophenyl)-8-(trifluoromethyl)imidazo[1,2-b]pyridazine-2-carbonyl]-2-methyl-piperazin-1-yl]-2-oxo-ethyl]carbamate] | 0.047 | 0.058 | > 50 | > 50 | – | – | – | – |
| C[C@H]1CN(C(=O)c2cn3nc(-c4ccc(F)cc4)cc(C(F)(F)F)c3n2)CCN1C(=O)[C@H](N)CC1CCCCC1 [Compound I-16, (2R)-2-amino-3-cyclohexyl-1-[(2S)-4-[6-(4-fluorophenyl)-8-(trifluoromethyl)imidazo[1,2-b]pyridazine-2-carbonyl]-2-methyl-piperazin-1-yl]propan-1-one] | 0.037 | 0.28 | 11 | 11 | – | – | – | – |
| C=CC(=O)N1CCN(C(=O)c2cn3nc(-c4ccc(F)cc4)cc(C(C)C)c3n2)C[C@@H]1C [Compound I-17, 1-[(2S)-4-[6-(4-Fluorophenyl)-8-isopropyl-imidazo[1,2-b]pyridazine-2-carbonyl]-2-methyl-piperazin-1-yl]prop-2-en-1-one] | 0.041 | 0.78 | 20 | 19 | – | – | – | – |
| CC(C)c1cc(Cl)nn2cc(C(=O)N3CCN(C(=O)OC(C)(C)C)CC3(C)C)nc12 [Compound I-18, tert-Butyl 4-(6-chloro-8-isopropyl-imidazo[1,2-b]pyridazine-2-carbonyl)-3,3-dimethyl-piperazine-1-carboxylate] | 2.8 | 6.8 | 20 | 18 | – | – | – | – |
| CC(C)c1cc(-c2ccc(F)cc2)nn2cc(C(=O)N3CCN(C(=O)C4(O)CCC4)CC3(C)C)nc12 [Compound I-19, [6-(4-Fluorophenyl)-8-isopropyl-imidazo[1,2-b]pyridazin-2-yl]-[4-(1-hydroxycyclobutanecarbonyl)-2,2-dimethyl-piperazin-1-yl]methanone] | 0.025 | 0.056 | – | 50 | 62 | – | – | – |
| CC(C)(O)C(=O)N1CCN(C(=O)c2cn3nc(-c4ccc(F)cc4)cc(C4CC4)c3n2)C(C)(C)C1 [Compound I-20, 1-[4-[8-cyclopropyl-6-(4-fluorophenyl)imidazo[1,2-b]pyridazine-2-carbonyl]-3,3-dimethyl-piperazin-1-yl]-2-hydroxy-2-methyl-propan-1-one] | 0.28 | 1.02 | 3.6 | 3 | – | – | – | – |
| CC1(C)CN(C(=O)C2(O)CCC2)CCN1C(=O)c1cn2nc(-c3ccc(F)cc3)cc(C3CC3)c2n1 [Compound I-21, [8-cyclopropyl-6-(4-fluorophenyl)imidazo[1,2-b]pyridazin-2-yl]-[4-(1-hydroxycyclobutanecarbonyl)-2,2-dimethyl-piperazin-1-yl]methanone] | 0.019 | 0.029 | > 50 | 64 | – | – | – | – |
| C[C@H]1CN(C(=O)c2cn3nc(-c4ccc(F)cc4)cc(C(F)(F)F)c3n2)CCN1C(=O)c1cc(-c2ccccc2)n[nH]1 [Compound I-87] | 0.021 | – | > 50 | > 50 | – | – | – | – |
| C[C@H]1CN(C(=O)c2cn3nc(-c4ccc(F)cc4)cc(C(F)(F)F)c3n2)CCN1C(=O)c1ncc[nH]1 [Compound I-88] | 0.68 | – | > 50 | > 50 | – | – | – | – |
| Cc1cc(F)ccc1-c1cc(C(C)C)c2nc(C(=O)N3CCNC(=O)C3(C)C)cn2n1 [Compound I-478] | – | – | – | – | – | 0.79 | > 1 | > 1 |
